# From patent EP4813381A1, “PHARMACEUTICAL USE OF GUAIANE SESQUITERPENE DERIVATIVE” (Nanjing University Of Chinese Medicine, priority 2023, dated 2025)
# Key:
# [1] = Conversion rate of salt-form prodrugs to parent compound in HEPES buffer solution; type: physicochemical; conditions: conversion to Compound 1, HEPES buffer pH 7.4, 37 °C
# Experimental: Adjust the pH to 7.4 using 0.5 M NaOH, then dilute to a final volume 100 mL with distilled water.
# (§1) Sample Analysis: Dissolve 0.6 mg of the compound in 250 µl of deionized water separately. Add 250 µl of mouse serum or HEPES 7.4 solution to the sample, incubate at a constant temperature of 37 °C, and collect samples at different time points. Pipette 20 µl of the sample to an EP tube, add 60 µl of methanol, vortex to mix thoroughly, and centrifuge at 12,000 rpm at 4 °C for 10 min. At 1 h, 2 h, 4 h, 8 h, and 12 h respectively, collect the supernatant for HPLC analysis. Inject 10 µL of sample and record the corresponding peak areas.
# [2] = Conversion rate of salt-form prodrugs to parent compound in mouse plasma; type: in vitro ADME; conditions: conversion to Compound 1, mouse plasma, 37 °C
# Experimental: Pharmaceutically acceptable salts of guaiane-type sesquiterpene lactone derivatives were selected and evaluated for their conversion rates to Compound 1 and Compound 83 in plasma and HEPES buffer, with results shown in Tables 2-1, 2-2, 3-1, and 3-2.
# Plasma Preparation: Collect mouse plasma into an EP tube pre-loaded with sodium heparin, centrifuge at 8000 rpm for 10 minutes at 4°C, and then collect the supernatant.
# as §1, with “areas. Chromatographic conditions: Hanbang C18 column (4.6 × 250 mm, 5 µm); mobile phase: acetonitrile: […] ammonium formate solution = 60:40; flow rate 1.0 mL/min; detection wavelength 210 nm; column temperature 30 °C. [drawing 171] Table 2-1. Conversion Rate of Compounds 20-42 to Compound 1 at Different Time Points in HEPES Buffer Solution” for “areas.”
SMILES,Release rate ([1]; 1 h) [%],Release rate ([1]; 2 h) [%],Release rate ([1]; 4 h) [%],Release rate ([1]; 8 h) [%],Release rate ([1]; 12 h) [%],Release rate ([2]; 1 h) [%],Release rate ([2]; 2 h) [%],Release rate ([2]; 4 h) [%],Release rate ([2]; 8 h) [%],Release rate ([2]; 12 h) [%]
C[C@@]12CC[C@@H]3[C@H](OC(=O)[C@H]3CN3CCCC3)[C@@H]3[C@]1(CC[C@@]3(C)O)C2 [compound 22],6.4,14.8,26.6,41.3,53.7,–,–,–,–,–
CCOC(=O)[C@@H]1CCCN1C[C@@H]1C(=O)O[C@H]2[C@H]1CC[C@@]1(C)C[C@]13CC[C@@](C)(O)[C@H]23 [compound 23],6.2,14.3,26.8,41.1,52.8,7.2,14.3,26.8,45.1,52.8
C[C@@]12CC[C@@H]3[C@H](OC(=O)[C@H]3CN3CCCCC3)[C@@H]3[C@]1(CC[C@@]3(C)O)C2 [compound 24],6.8,15.1,26.7,42.8,54.0,7.7,17.1,27.7,47.8,57.9
C[C@@]12CC[C@@H]3[C@H](OC(=O)[C@H]3CN3CCOCC3)[C@@H]3[C@]1(CC[C@@]3(C)O)C2 [compound 25],6.8,14.1,26.1,42.8,51.8,6.8,14.1,25.7,43.8,51.8
C[C@@]12CC[C@@H]3[C@H](OC(=O)[C@H]3CN3CCNCC3)[C@@H]3[C@]1(CC[C@@]3(C)O)C2 [compound 26],6.8,16.1,27.3,43.5,55.6,–,–,–,–,–
CCN1CCN(C[C@@H]2C(=O)O[C@H]3[C@H]2CC[C@@]2(C)C[C@]24CC[C@@](C)(O)[C@H]34)CC1 [compound 27],–,–,–,–,–,7.9,17.4,28.4,48.2,59.1
CCN(CC)C[C@@H]1C(=O)O[C@H]2[C@H]1CC[C@@]1(C)C[C@]13CC[C@@](C)(O)[C@H]23 [compound 28],6.8,14.5,24.4,40.4,50.0,6.8,14.5,24.4,40.4,49.1
CCCN(CCC)C[C@@H]1C(=O)O[C@H]2[C@H]1CC[C@@]1(C)C[C@]13CC[C@@](C)(O)[C@H]23 [compound 29],6.8,14.2,24.6,40.2,49.8,6.8,14.2,24.6,40.2,49.0
CCCCN(CCCC)C[C@@H]1C(=O)O[C@H]2[C@H]1CC[C@@]1(C)C[C@]13CC[C@@](C)(O)[C@H]23 [compound 30],6.6,14.6,23.8,40.8,49.8,6.6,13.6,23.8,40.8,48.8
CC(C)N(C[C@@H]1C(=O)O[C@H]2[C@H]1CC[C@@]1(C)C[C@]13CC[C@@](C)(O)[C@H]23)C(C)C [compound 31],6.7,14.0,23.0,41.2,49.5,6.5,13.9,24.4,40.2,48.5
C[C@@]12CC[C@@H]3[C@H](OC(=O)[C@H]3CN3CC4CCCC4C3)[C@@H]3[C@]1(CC[C@@]3(C)O)C2 (stereo partly drawn) [compound 32],6.9,15.4,26.2,42.2,51.2,6.3,14.4,25.2,43.2,51.4
C[C@@]12CC[C@@H]3[C@H](OC(=O)[C@H]3CN3CCC3)[C@@H]3[C@]1(CC[C@@]3(C)O)C2 [compound 33],6.9,15.8,26.0,41.8,51.1,6.9,14.8,26.0,42.8,50.7
C[C@@]12CC[C@@H]3[C@H](OC(=O)[C@H]3CN3CCC4(CCCC4)CC3)[C@@H]3[C@]1(CC[C@@]3(C)O)C2 [compound 34],7.0,16.2,27.6,43.6,54.4,7.8,17.2,28.6,47.6,58.8
C[C@@]12CC[C@@H]3[C@H](OC(=O)[C@H]3CN3CCC(N4CCCCC4)CC3)[C@@H]3[C@]1(CC[C@@]3(C)O)C2 [compound 35],6.8,14.6,26.4,43.8,52.5,6.8,13.6,26.4,44.8,52.5
C[C@@]12CC[C@@H]3[C@H](OC(=O)[C@H]3CN3CCC(N4CCOCC4)CC3)[C@@H]3[C@]1(CC[C@@]3(C)O)C2 [compound 36],6.9,14.8,26.0,43.6,52.4,6.6,14.8,26.0,43.6,52.1
C[C@@]12CC[C@@H]3[C@H](OC(=O)[C@H]3CN3CCC4(CC3)CC4)[C@@H]3[C@]1(CC[C@@]3(C)O)C2 [compound 37],7.2,16.8,28.3,44.1,65.8,8.2,17.8,29.3,48.1,67.8
C[C@@]12CC[C@@H]3[C@H](OC(=O)[C@H]3CN3CCCCCCC3)[C@@H]3[C@]1(CC[C@@]3(C)O)C2 [compound 38],6.9,14.8,25.4,41.4,50.7,6.1,14.5,25.4,41.4,49.7
CN(C)C[C@@H]1C(=O)O[C@H]2[C@H]1CC[C@@]1(C)C[C@]13CC[C@@](C)(O)[C@H]23 [compound 39],6.6,15.0,–,42.7,54.3,6.6,14.0,–,43.6,52.8
CN(C)C[C@@H]1C(=O)O[C@H]2[C@H]1CC[C@@]1(C)C[C@]13CC[C@@](C)(O)[C@H]23 [compound 40],6.8,14.6,–,44.0,50.2,6.7,14.2,–,44.0,52.6
